# US11883419B2, “DNA polymerase gamma inhibitor and uses thereof” (ACIBADEM MEHMET ALI AYDINLAR UNIVERSITESI, priority 2018, dated 2024)
# Columns and labels:
# HCT116 xenograft = HCT116 xenograft study in nude mice; type: in vivo; details: all doses
# Description: Tumor volume (mm^3) vs days the graph is indicated in FIG. 6 (a), body weight vs days after injection graph is in FIG. 6 (b), and FIG. 6 (c) is HCT116 Control vs […] image.
# Lovo xenograft = Lovo xenograft study in nude mice; type: in vivo
# HCT116 (MLH1 deficient) = experiment: xCELLigence real time cell proliferation/cytotoxicity; details: read-out: IC50, cytotoxicity; HCT116, 5, 10, 20 μM, 72 h, RTCA software
smiles,measurement,setting,value
Nc1c(/N=N/c2ccc(-c3ccc(/N=N/c4cc(S(=O)(=O)O)c5ccccc5c4N)cc3)cc2)cc(S(=O)(=O)O)c2ccccc12 [Formula II],Tumor volume,HCT116 xenograft,decreased tumor volume in all doses
same,Tumor growth,Lovo xenograft,did not affect the tumor growth
same,IC50,HCT116 (MLH1 deficient),5.19 µM
